From US10450321B2, “[1,2,3]triazolo[4,5-D]pyrimidine derivatives” (Hoffmann-La Roche Inc., priority 2016, dated 2019)
Like-named read-outs stand apart in the source and are kept apart here.

Columns and labels:
[1] = molecular target: human CB2 receptor (Homo sapiens (Human), UniProt P34972); test: Radioligand binding assay, [3H]-CP-55,940, HEK cell membranes expressing human CNR2
Description: (§1) Radioligand Binding Assay
(§2) The affinity of the compounds of the invention for cannabinoid receptors was determined using recommended amounts of membrane preparations (PerkinElmer) of human embryonic kidney (HEK) cells expressing the human CNR1 or CNR2 receptors in conjunction with 1.5 or 2.6 nM [3H]-CP-55,940 (Perkin Elmer) as radioligand, respectively. Binding was performed in binding buffer (50 mM Tris, 5 mM MgCl2, 2.5 mM EDTA, and 0.5% (wt/vol) fatty acid free BSA, pH 7.4 for CB1 receptor and 50 mM Tris, 5 mM MgCl2, 2.5 mM EGTA, and 0.1% (wt/vol) fatty acid free BSA, pH 7.4 for CB2 receptor) in a total volume of 0.2 mL for 1 h at 30° C. shaking. The reaction was terminated by rapid filtration through microfiltration plates coated with 0.5% polyethylenimine (UniFilter GF/B filter plate; Packard). Bound radioactivity was analyzed for Ki using nonlinear regression analysis (Activity Base, ID Business Solution, Limited), with the Kd values for [^3H]CP55,940 determined from saturation experiments.

[2] = molecular target: human CB1 receptor (Homo sapiens (Human), UniProt P21554); test: Radioligand binding assay, [3H]-CP-55,940, HEK cell membranes expressing human CNR1
Description: as §1, §2

[3] = membranes of HEK cells expressing human CNR2, 2.6 nM [3H]-CP-55,940, 1 h at 30° C., read-out: human CB2 Ki
[4] = membranes of HEK cells expressing human CNR1, 1.5 nM [3H]-CP-55,940, 1 h at 30° C., read-out: human CB1 Ki

Chain of human CB1 receptor (P21554 whole entry): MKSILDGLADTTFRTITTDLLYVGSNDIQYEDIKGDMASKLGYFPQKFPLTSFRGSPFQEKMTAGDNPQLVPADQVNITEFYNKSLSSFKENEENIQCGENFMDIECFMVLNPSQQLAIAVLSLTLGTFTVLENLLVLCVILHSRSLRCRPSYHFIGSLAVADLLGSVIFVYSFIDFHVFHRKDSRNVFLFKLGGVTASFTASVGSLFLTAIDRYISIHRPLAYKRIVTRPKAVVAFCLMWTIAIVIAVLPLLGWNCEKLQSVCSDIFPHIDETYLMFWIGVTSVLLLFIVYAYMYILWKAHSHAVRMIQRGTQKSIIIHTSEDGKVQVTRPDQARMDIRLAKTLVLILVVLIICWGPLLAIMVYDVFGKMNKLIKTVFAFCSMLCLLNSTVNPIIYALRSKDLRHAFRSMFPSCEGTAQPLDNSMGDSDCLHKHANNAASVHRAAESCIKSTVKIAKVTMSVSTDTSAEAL
Chain of human CB2 receptor (P34972 whole entry): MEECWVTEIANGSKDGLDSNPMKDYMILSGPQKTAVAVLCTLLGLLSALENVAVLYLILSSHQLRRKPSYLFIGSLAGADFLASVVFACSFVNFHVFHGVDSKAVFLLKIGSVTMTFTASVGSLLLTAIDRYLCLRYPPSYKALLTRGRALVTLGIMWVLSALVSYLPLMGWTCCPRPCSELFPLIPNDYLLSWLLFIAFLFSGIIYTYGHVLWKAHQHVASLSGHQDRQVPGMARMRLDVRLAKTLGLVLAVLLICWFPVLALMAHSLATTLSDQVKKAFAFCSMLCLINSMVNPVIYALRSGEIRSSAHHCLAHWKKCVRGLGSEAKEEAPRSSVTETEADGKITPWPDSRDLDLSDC

SMILES: CC(C)(C)c1nc(N2CC[C@H](O)C2)c2nn(Cc3ccccc3CN=C=S)nc2n1 [Example 3, (3S)-1-(5-tert-Butyl-2-{[2-(isothiocyanatomethyl)phenyl]methyl}-2H-[1,2,3]triazolo[4,5-d]pyrimidin-7-yl)pyrrolidin-3-ol]
- Ki [1, 3]: 0.529 µM
- Ki [2, 4]: > 10 µM

SMILES: CC(C)(C)c1nc(N2CCC(F)(F)C2)c2nn(Cc3ccccc3S(=O)(=O)F)nc2n1 [Example 5, 2-{[5-tert-Butyl-7-(3,3-difluoropyrrolidin-1-yl)-2H-[1,2,3]triazolo[4,5-d]pyrimidin-2-yl]methyl}benzene-1-sulfonyl fluoride]
- Ki [1]: 0.361 µM
- Ki [2]: > 10 µM

SMILES: CC(C)(C)c1nc(N2CCC(F)(F)C2)c2nn(Cc3ccccc3CN=C=S)nc2n1 [Example 6, 5-tert-Butyl-7-(3,3-difluoropyrrolidin-1-yl)-2-{[2-(isothiocyanatomethyl)phenyl]methyl}-2H-[1,2,3]triazolo[4,5-d]pyrimidine]
- Ki [1, 3]: 0.211 µM
- Ki [2, 4]: 4.88 µM

SMILES: C#Cc1cccc(S(=O)(=O)F)c1Cn1nc2nc(C(C)(C)C)nc(N3CCC(F)(F)C3)c2n1 [Example 7, 2-[[5-tert-Butyl-7-(3,3-difluoropyrrolidin-1-yl)triazolo[4,5-d]pyrimidin-2-yl]methyl]-3-ethynylbenzenesulfonyl fluoride]
- Ki [1]: 0.421 µM
- Ki [2]: > 10 µM

SMILES: CC(C)(C)c1nc(N2CCC(F)(F)C2)c2nn(Cc3ccccc3N=C=S)nc2n1 [Example 4, 5-tert-Butyl-7-(3,3-difluoropyrrolidin-1-yl)-2-[(2-isothiocyanatophenyl)methyl]-2H-[1,2,3]triazolo[4,5-d]pyrimidine]
- Ki [1, 3]: 0.453 µM
- Ki [2, 4]: > 10 µM

SMILES: CC(C)(C)c1nc(N2CC[C@H](O)C2)c2nn(Cc3ccccc3S(=O)(=O)F)nc2n1 [Example 1, 2-({5-tert-Butyl-7-[(3S)-3-hydroxypyrrolidin-1-yl]-2H-[1,2,3]triazolo[4,5-d]pyrimidin-2-yl}methyl)benzene-1-sulfonyl fluoride]
- Ki [1]: 1.16 µM
- Ki [2]: > 10 µM

SMILES: CC(C)(C)c1nc(N2CCC(F)(F)C2)c2nn(Cc3ccccc3CS(=O)(=O)F)nc2n1 [Example 2, (2-{[5-tert-Butyl-7-(3,3-difluoropyrrolidin-1-yl)-2H-[1,2,3]triazolo[4,5-d]pyrimidin-2-yl]methyl}phenyl)methanesulfonyl fluoride]
- Ki [1]: 0.637 µM
- Ki [2]: > 10 µM
